“Also recorded” adds a separate entry of the source.
Experiments:
[1] = tested on: OE19; assay: MTT viability and recovery assay; assay type: cell-based, human; conditions: 10 μM cisplatin, 48 hours
Experimental: (§1) Viability of esophageal cells was assessed using the MTT reduction assay. Cells are seeded at 2×10^4 (OE33/OE19) and 1×10^4 (OE21/KYSE450) cells per cm^2, treated for 48-96 hours and incubated for an additional 60 minutes at 37° C. in 0.5 mg/ml MTT dye. Viable, metabolizing cells reduce MTT dye, producing a dark formazan product, with absorbance read at 562 nm, reference wavelength 620 nm. To assess recovery, at 48 hours post treatment, in replicate plates (identical seeding & treatment times), all drugs were removed, culture medium was replaced, and these cells were cultured for a further 48-96 hours, to monitor their ability to recover and MTT assay was repeated.
(§2) In analysis of MTT data, values are presented as the Mean absorbance+/−Standard Error of the Mean (S.E.M) for four independent experiments. Statistical analysis was performed with paired Student's t-test. Values of p<0.05 were considered statistically significant. Asterisks indicate the level of significance.

[2] = tested on: OE21; assay: MTT viability and recovery assay; assay type: cell-based, human; conditions: 10 μM cisplatin, 48 hours
Experimental: as §1, §2

[3] = tested on: OE33; assay: MTT viability and recovery assay; assay type: cell-based, human; conditions: 10 μM cisplatin, 48 hours
Experimental: as §1, §2

[4] = tested on: KYSE450; assay type: cell-based, human; conditions: 10 μM cisplatin, 48 hours
Experimental: as §1, §2

[5] = tested on: OE21; conditions: 48 hours
Experimental: (§3) Morphological features of cells treated with 5-fluorouracil (5-FU)/cisplatin, without and with 3-MA, LY294002, Bafilomycin, Lithium chloride, rapamycin or HA14-I were examined by light microscopy. Morphologies of treated cells were examined 24 and 48 hours post treatment, treatment times are referred to in figure legends. Aliquots of vehicle control and drug treated cells were cytospun onto glass slides and stained with Rapi-Diff (Braidwood laboratories, UK). The extent of apoptotic and non-apoptotic cell death was determined by counting the cells in at least three fields of view per slide, with an average of ˜100 cells per field. Apoptotic cell death is characterized by the presence of two or more of the following morphological features: cell shrinkage, chromatin condensation, DNA degradation and fragmentation into ‘apoptotic bodies’, within an intact plasma membrane. Autophagic cell death was identified by clear elevation of cytoplasmic vesicles, loss of cytoplasmic material, pyknosis of the nuclear material and an intact nuclear membrane. Cytospin images are representative of at least three independent experiments.

[6] = tested on: KYSE450; assay: Evaluation of cell death morphology by light microscopy; assay type: cell-based, human; conditions: 5-FU (50 μM) or cisplatin (40 μM), 48 hours
Experimental: as §3

[7] = tested on: OE19; assay: as above; assay type: cell-based, human
Experimental: as §3

[8] = tested on: OE33; assay: as above; assay type: cell-based, human; conditions: 5-FU (50 μM) or cisplatin (40 μM), 48 hours
Experimental: as §3

[9] = tested on: active caspase-3 in KYSE450 cells; assay: Active caspase-3 by flow cytometry; assay type: cell-based, human; conditions: 48 hours after treatment, range of concentrations
Experimental: (§4) To examine control and 5-Fluorouracil treated cells for evidence of caspase activity cells were processed by trypsinization, 48 hours after treatment. […] This was detected with an anti rabbit FITC conjugated secondary antibody, and samples were analyzed by FACScan at 530 nm (FL-1). Percentages indicate the proportion of cells with active caspase-3, detected as an increase in the number of FITC (FL-1) labelled cells.

[10] = tested on: active caspase-3 in OE19 cells; assay: Active caspase-3 by flow cytometry; assay type: cell-based, human; conditions: 48 hours after treatment
Experimental: as §4

[11] = tested on: active caspase-3 in OE21 cells; assay: Active caspase-3 by flow cytometry; assay type: cell-based, human; conditions: 48 hours after treatment
Experimental: as §4

[12] = tested on: active caspase-3 in OE33 cells; assay: Active caspase-3 by flow cytometry; assay type: cell-based, human; conditions: 48 hours after treatment
Experimental: as §4

[13] = tested on: KYSE450; assay: Mitochondrial depolarization, JC-1 probe; assay type: cell-based, human; conditions: 48 hour treatment
Experimental: (§5) Mitochondrial membrane potential was determined using the JC-1 probe (Molecular Probes). In non-apoptotic cells, JC1 accumulates as aggregates in the mitochondria, which stain red (FL2; 590 nm). At the onset of apoptosis, a loss of mitochondrial membrane potential (ΔΨm) releases the aggregated JC1, returning it to its monomeric form, which stains the cytosol green (FL1; 530 nm). Therefore, fluorescence of the JC-1 probe in the FL-2 channel decreases as mitochondrial membrane integrity is lost, while the fluorescence in FL-1 channel increases. Cells were incubated in JC1 (7.5 μg/ml) at 37° C. for 15 mins, and washed prior to analysis by flow cytometry (FACScan, Becton Dickinson). Percentages denote the proportion of cells with depolarised mitochondria following 48 hour incubation with 5-Fluorouracil and represent at least three independent experiments.

[14] = tested on: OE19; assay: Mitochondrial depolarization, JC-1 probe; assay type: cell-based, human; conditions: 48 hour treatment
Experimental: as §5

[15] = tested on: OE21; assay: Mitochondrial depolarization, JC-1 probe; assay type: cell-based, human; conditions: 48 hour treatment
Experimental: as §5

[16] = tested on: OE33; assay: Mitochondrial depolarization, JC-1 probe; assay type: cell-based, human; conditions: 48 hour treatment
Experimental: as §5

[17] = tested on: LC3 in KYSE450 cells; assay: LC3 / GFP-LC3 processing and distribution (Western blot, fluorescence microscopy); assay type: cell-based, human; conditions: 5-FU or cisplatin (data not shown)
Experimental: (§6) Total cellular protein extracts were prepared by scraping the cells into modified RIPA buffer (50 mM Tris HCl (pH 7.4), 150 mM NaCl, 0.25% Sodium deoxycholate, 1% Igepal, protease inhibitors 1 mM EDTA, 1× Pefabloc, 1× protease inhibitor cocktail, 1 mM Na3VO4, 1 mM NaF). All protein samples were separated by SDS-PAGE (10/12%) and electrophoretically transferred onto nitrocellulose membrane. All primary antibodies were incubated overnight at 4° C.: anti-phospho mTOR (Ser 2448) and anti-p70^S6K (Thr 389) (Cell Signaling Technologies, UK), anti-Beclin-1 (BD Biosciences, UK) and anti-LC3 (Medical & Biological Laboratories, Japan). The membranes were incubated with the relevant horseradish peroxidase conjugated secondary antibodies (DakoCytomation, Dublin) and detected by chemiluminescence (ECL Amersham, UK).
(§7) To visualize and quantify the formation of autophagic vesicles, the green fluorescent protein (GFP)-LC3 (pEGFP-LC3) expression vector, kindly supplied by Dr. T. Yoshimori (National Institute of Genetics, Japan) was used. Cells were transiently transfected with the Amaxa electroporation system according to the supplier's protocol. Twenty-four hours post transfection, cells were treated with 5-FU and/or Cisplatin, fixed in 4% paraformaldehyde in PBS and transferred onto slides using a non-fluorescent fixative for analysis by fluorescence microscopy. Alternatively, Western Blot analysis was used to assess the expression and processing of LC3. […] The membrane sequestered, lipid-conjugated form of LC3-II remains with the autophagosome membrane after the vesicle has formed, and levels of both isoform are detected by Western Blot. Transfection efficiency was consistent for a given cell line, OE33 and KYSE450 cell lines (˜60-70%) compared to OE19 and OE21 cell lines (˜30%).

[18] = tested on: LC3 in OE19 cells; assay: as above; assay type: cell-based, human; conditions: 5-FU (25 & 50 μM) or cisplatin (10 & 25 μM)
Experimental: as §6, §7

[19] = tested on: LC3 in OE21 cells; assay: as above; assay type: cell-based, human; conditions: 5-FU or cisplatin (images not shown)
Experimental: as §6, §7

[20] = tested on: LC3 in OE33 cells; assay: as above; assay type: cell-based, human; conditions: 5-FU or cisplatin (images not shown)
Experimental: as §6, §7

[21] = tested on: KYSE450; assay: Monodansylcadaverine (MDC)-labelled vacuoles; assay type: cell-based, human; conditions: 25 μM
Experimental: (§8) MDC is an autofluorescent weak base that accumulates in acidic lysosomal vacuoles, showing high selectivity for autophagosomes, due to the high level of unhydrolyzed membrane lipids from engulfed organelles, which enhance MDC fluorescence. Cells were incubated with 0.1 mM MDC in PBS at 37° C. for 10 minutes (Biederbick et al., 1995), washed and immediately analyzed by fluorescent microscopy.

[22] = tested on: OE19; assay: Monodansylcadaverine (MDC)-labelled vacuoles; assay type: cell-based, human; conditions: 25 μM
Experimental: as §8

[23] = tested on: OE21; assay: Monodansylcadaverine (MDC)-labelled vacuoles; assay type: cell-based, human; conditions: 25 μM
Experimental: as §8

[24] = tested on: OE33; assay: Monodansylcadaverine (MDC)-labelled vacuoles; assay type: cell-based, human; conditions: 25 μM
Experimental: as §8

[25] = 40 μM cisplatin, 48 hours (FIG. 1c)

N.N.[Cl][Pt][Cl] [cisplatin]
cell viability (MTT) [1]: only marginally affected
cell viability (MTT) [2]: significant effects on cell viability
cell viability (MTT) [3]: significant effects on cell viability
cell viability (MTT) [4]: only marginally affected
apoptotic cell death ([5]; 40 μM cisplatin): 31%
non-apoptotic cell death ([5]; 40 μM cisplatin): 3%
cell death morphology ([5]; 5-FU (50 μM) or cisplatin (40 μM)): predominantly apoptotic cell death morphology
cell death morphology [6]: predominantly non-apoptotic morphology
apoptosis [7, 25]: 0.5%
non-apoptotic cell death [7, 25]: 38%
cell death morphology ([7]; 5-FU (50 μM) or cisplatin (40 μM), 48 hours): predominantly non-apoptotic morphology
cell death morphology [8]: predominantly apoptotic cell death morphology
active caspase-3 [9]: do not show caspase-3 activity
active caspase-3 [10]: do not show caspase-3 activity
active caspase-3 [11]: displayed active caspase-3
active caspase-3 [12]: displayed active caspase-3
mitochondrial depolarization (JC-1) [13]: do not show caspase-3 activity or mitochondrial membrane depolarization
mitochondrial depolarization (JC-1) [14]: do not show caspase-3 activity or mitochondrial membrane depolarization
mitochondrial depolarization (JC-1) [15]: mitochondrial depolarization
mitochondrial depolarization (JC-1) [16]: mitochondrial depolarization
GFP-LC3 distribution (fluorescence microscopy) [17]: Redistribution of GFP-LC3 from a diffuse cytosolic to a punctate autophagosome-associated pattern
GFP-LC3 distribution (fluorescence microscopy) [18]: Redistribution of GFP-LC3 from a diffuse cytosolic to a punctate autophagosome-associated pattern; also recorded: bright punctate patterns of GFP-LC3 fluorescence
GFP-LC3 distribution (fluorescence microscopy) [19]: Diffuse cytoplasmic localization of GFP-LC3
GFP-LC3 distribution (fluorescence microscopy) [20]: Diffuse cytoplasmic localization of GFP-LC3
MDC staining pattern [21]: accumulation of MDC (bright blue punctate staining) throughout the cytoplasm
MDC staining pattern [22]: accumulation of MDC (bright blue punctate staining) throughout the cytoplasm
MDC staining pattern [23]: MDC staining patterns are diffuse
MDC staining pattern [24]: MDC staining patterns are diffuse

— patent US9155761B2, “Method for the treatment of cancer” (UNIVERSITY COLLEGE CORK, NATIONAL UNIVERSITY OF IRELAND, …, priority 2009, dated 2015)
